# PMC4553520, “Laboratory and Simulated Field Bioassays to Evaluate Larvicidal Activity of Pinus densiflora Hydrodistillate, Its Constituents and Structurally Related Compounds against Aedes albopictus, Aedes aegypti and Culex pipiens pallens in Relation to Their Inhibitory Effects on Acetylcholinesterase Activity” (Insects, 2013)
# Test system: early third-instar larvae of Cx. p. pallens
# Assay: Direct-contact mortality bioassay, laboratory-reared Cx. p. pallens larvae
# Details: Culex pipiens, 24 h, read-out: LC50 (Cx p. pallens), mg/L (95% CL)
# Method: (§1) Direct-contact mortality bioassays were employed to evaluate the toxicity of all compounds, using early third-instar larvae of each mosquito species. Each compound was dissolved in methanol, and then further diluted in distilled water containing Triton X-100 (20 µL/L). Groups of 20 mosquito larvae of each species were put into separate paper cups (270 mL), each containing different compound solutions (250 mL). The toxicity of each compound was determined by repeating this experimental procedure with different concentrations, ranging from 5 to 200 mg/L. Temephos and fenthion served as standard references and were similarly formulated as well. Controls contained only methanol-Triton X-100 carrier solution in distilled water.
# (§2) Both treated and control larvae were kept under the same conditions as those used for colony maintenance. […] Due to certain constraints arising from the number of available larvae, all necessary bioassays could not be conducted simultaneously and thus, treatments were conducted over a period of time, with a separate control treatment included each time. Freshly prepared compound solutions were used for each round of bioassays. All bioassays were repeated three times.
# (§3) Concentration-mortality data were subjected to probit analysis using SAS [20]. […] Furthermore, for the compounds tested in AChE inhibition assays, a correlation analysis between their LC50 values and IC50 values was conducted using SAS [20].
row,Molecule,LC50 [mg/L]
1,Cc1cccc(C(C)C)c1 [m-cymene],59.4
2,Cc1ccc(C(C)C)cc1 [p-cymene],29.7
3,CC1=CC[C@H](C(C)C)C=C1 [α-phellandrene],14
4,CC1=CC=C(C(C)C)CC1 [α-terpinene],23.9
5,CC1=CCC(=C(C)C)CC1 [α-terpinolene],10.6
6,C=C1CC/C=C(\C)CC[C@@H]2[C@@H]1CC2(C)C [β-caryophyllene],47.8
7,CC1=CCC(C(C)C)=CC1 [γ-terpinene],17.8
8,CC1=CCC2C(C1)C2(C)C (stereo not shown) [δ-3-carene],10.1

# Same assay, conditions: laboratory-reared early third-instar larvae, 24 h exposure, direct contact
row,Molecule,"LC50 (Cx p. pallens), mg/L (95% CL)"
1,CC1=C[C@H](O)[C@H]2C[C@@H]1C2(C)C (relative stereo) [(S)-cis-verbenol],140.41 (124.89–167.57) mg/L
2,CC1(C)[C@@H]2CC[C@H](CO)[C@H]1C2 (relative stereo) [(−)-cis-myrtanol],>150 mg/L
3,"CC(C)=CCCC(C)CC=O (single isomer, unassigned; (+)) [(+)-citronellal]",49.47 (43.52–57.04) mg/L
4,"CC1=CCC(O)(C(C)C)CC1 (single isomer, unassigned; (+)) [(+)-terpinen-4-ol]",86.25 (78.22–95.55) mg/L
5,"CC1(C)C2CC=C(CO)C1C2 (single isomer, unassigned; (-)) [(−)-myrtenol]",>150 mg/L
6,CC(C)=CCCC(C)CCO (stereo not drawn) [(+)-β-citronellol],87.81 (80.62–95.50) mg/L
7,C=C(C)[C@H]1CC=C(C)C(=O)C1 [(S)-(+)-carvone],46.19 (43.54–49.12) mg/L
8,CC(C)=CCCC(C)CCO (stereo not drawn) [(−)-β-citronellol],66.26 (59.63–73.33) mg/L
9,C=C1CC[C@@H]2[C@H]([C@@H]3[C@H](C)CC[C@@H]13)C2(C)C [Aromadendrene],147.91 (127.93–188.26) mg/L
10,C=C1CC[C@H]2O[C@]2(C)CC[C@@H]2[C@@H]1CC2(C)C [Caryophyllene oxide],126.28 (110.92–158.13) mg/L
11,CC(=O)OC(C)(C)C1CC=C(C)CC1 (stereo not shown) [Terpinyl acetate],58.27 (52.60–64.82) mg/L
12,Cc1ccccc1C(C)C [o-cymene],47.78 (40.96–55.39) mg/L
13,(−)-terpinen-4-ol,85.66 (75.71–97.28) mg/L

# Test system: field-collected larvae of Cx. p. pallens
# Assay: Semi-field bioassay, field-collected Cx. p. pallens larvae
# Details: Culex pipiens, 24 h, read-out: LC50, mg/L, Field-collected
# Method: Larvae of wild mosquitoes were field-collected from irrigated rice fields in Yongin, Korea in early August 2012. A satellite view of the larvae collection site is included in Figure 1 [13].
# The buckets were treated with test compounds and covered with nylon mesh screen to prevent other mosquitoes and insects from laying eggs. The buckets were then placed back at the initial collection site and were allowed to stand for 24 h, after which the mortality data were recorded. Temephos and fenthion served as standard references.
# as §3
row,Molecule,LC50 [mg/L]
1,CC1=CCC(=C(C)C)CC1 [α-terpinolene],13.9
2,CC1=CCC2C(C1)C2(C)C (stereo not shown) [δ-3-carene],12.7

# Same assay, conditions: field-collected vs laboratory-reared Cx. p. pallens larvae (LC50 ratio)
row,Molecule,Resistance ratio
1,CC1=CCC(=C(C)C)CC1 [α-terpinolene],1.31
2,CC1=CCC2C(C1)C2(C)C (stereo not shown) [δ-3-carene],1.25

# Test system: early third-instar larvae of Ae. albopictus
# Assay: Direct-contact mortality bioassay, Ae. albopictus larvae
# Details: Aedes albopictus, 24 h, read-out: LC50 (Ae. albopictus), mg/L (95% CL)
# Method: as §1, §2, §3
row,Molecule,LC50 [mg/L]
1,Cc1cccc(C(C)C)c1 [m-cymene],62
2,Cc1ccc(C(C)C)cc1 [p-cymene],32.8
3,CC1=CC[C@H](C(C)C)C=C1 [α-phellandrene],16.9
4,CC1=CC=C(C(C)C)CC1 [α-terpinene],21.9
5,CC1=CCC(=C(C)C)CC1 [α-terpinolene],13.9
6,C=C1CC/C=C(\C)CC[C@@H]2[C@@H]1CC2(C)C [β-caryophyllene],39.5
7,CC1=CCC(C(C)C)=CC1 [γ-terpinene],16.2
8,CC1=CCC2C(C1)C2(C)C (stereo not shown) [δ-3-carene],9.33

# Same assay, conditions: early third-instar larvae, 24 h exposure, direct contact
row,Molecule,"LC50 (Ae. albopictus), mg/L (95% CL)"
1,CC1=C[C@H](O)[C@H]2C[C@@H]1C2(C)C (relative stereo) [(S)-cis-verbenol],136.86 (121.92–161.87) mg/L
2,CC1(C)[C@@H]2CC[C@H](CO)[C@H]1C2 (relative stereo) [(−)-cis-myrtanol],>150 mg/L
3,"CC(C)=CCCC(C)CC=O (single isomer, unassigned; (+)) [(+)-citronellal]",46.39 (41.08–52.95) mg/L
4,"CC1=CCC(O)(C(C)C)CC1 (single isomer, unassigned; (+)) [(+)-terpinen-4-ol]",98.28 (91.85–105.07) mg/L
5,"CC1(C)C2CC=C(CO)C1C2 (single isomer, unassigned; (-)) [(−)-myrtenol]",>150 mg/L
6,CC(C)=CCCC(C)CCO (stereo not drawn) [(+)-β-citronellol],90.89 (83.26–99.00) mg/L
7,C=C(C)[C@H]1CC=C(C)C(=O)C1 [(S)-(+)-carvone],43.83 (41.78–45.91) mg/L
8,CC(C)=CCCC(C)CCO (stereo not drawn) [(−)-β-citronellol],71.99 (64.67–80.37) mg/L
9,C=C1CC[C@@H]2[C@H]([C@@H]3[C@H](C)CC[C@@H]13)C2(C)C [Aromadendrene],129.21 (118.02–145.97) mg/L
10,C=C1CC[C@H]2O[C@]2(C)CC[C@@H]2[C@@H]1CC2(C)C [Caryophyllene oxide],107.62 (99.82–116.81) mg/L
11,CC(=O)OC(C)(C)C1CC=C(C)CC1 (stereo not shown) [Terpinyl acetate],72.39 (65.05–80.55) mg/L
12,Cc1ccccc1C(C)C [o-cymene],48.57 (42.14–55.77) mg/L
13,(−)-terpinen-4-ol,92.16 (84.28–101.24) mg/L

# Test system: early third-instar larvae of Ae. aegypti
# Assay: Direct-contact mortality bioassay, Ae. aegypti larvae
# Details: Aedes aegypti, 24 h, read-out: LC50 (Ae. aegypti), mg/L (95% CL)
# Method: as §1, §2, §3
row,Molecule,LC50 [mg/L]
1,Cc1cccc(C(C)C)c1 [m-cymene],69.7
2,Cc1ccc(C(C)C)cc1 [p-cymene],33.5
3,CC1=CC[C@H](C(C)C)C=C1 [α-phellandrene],19.4
4,CC1=CC=C(C(C)C)CC1 [α-terpinene],24.9
5,CC1=CCC(=C(C)C)CC1 [α-terpinolene],15.3
6,C=C1CC/C=C(\C)CC[C@@H]2[C@@H]1CC2(C)C [β-caryophyllene],38.6
7,CC1=CCC(C(C)C)=CC1 [γ-terpinene],20.5
8,CC1=CCC2C(C1)C2(C)C (stereo not shown) [δ-3-carene],12.1

# Same assay, conditions: early third-instar larvae, 24 h exposure, direct contact
row,Molecule,"LC50 (Ae. aegypti), mg/L (95% CL)"
1,CC1=C[C@H](O)[C@H]2C[C@@H]1C2(C)C (relative stereo) [(S)-cis-verbenol],>150 mg/L
2,CC1(C)[C@@H]2CC[C@H](CO)[C@H]1C2 (relative stereo) [(−)-cis-myrtanol],>150 mg/L
3,"CC(C)=CCCC(C)CC=O (single isomer, unassigned; (+)) [(+)-citronellal]",48.23 (42.42–55.64) mg/L
4,"CC1=CCC(O)(C(C)C)CC1 (single isomer, unassigned; (+)) [(+)-terpinen-4-ol]",78.73 (71.24–85.73) mg/L
5,"CC1(C)C2CC=C(CO)C1C2 (single isomer, unassigned; (-)) [(−)-myrtenol]",>150 mg/L
6,CC(C)=CCCC(C)CCO (stereo not drawn) [(+)-β-citronellol],93.46 (85.80–101.82) mg/L
7,C=C(C)[C@H]1CC=C(C)C(=O)C1 [(S)-(+)-carvone],42.14 (39.62–44.62) mg/L
8,CC(C)=CCCC(C)CCO (stereo not drawn) [(−)-β-citronellol],75.31 (68.31–83.22) mg/L
9,C=C1CC[C@@H]2[C@H]([C@@H]3[C@H](C)CC[C@@H]13)C2(C)C [Aromadendrene],>150 mg/L
10,C=C1CC[C@H]2O[C@]2(C)CC[C@@H]2[C@@H]1CC2(C)C [Caryophyllene oxide],113.00 (104.54–123.59) mg/L
11,CC(=O)OC(C)(C)C1CC=C(C)CC1 (stereo not shown) [Terpinyl acetate],96.32 (89.89–103.04) mg/L
12,Cc1ccccc1C(C)C [o-cymene],39.60 (33.25–46.71) mg/L
13,(−)-terpinen-4-ol,72.36 (66.33–78.22) mg/L
